Measured values from publication PMC6669513, “Identification of A Novel Antibacterial Peptide from Atlantic Mackerel belonging to the GAPDH-Related Antimicrobial Family and Its In Vitro Digestibility” (Marine Drugs, 2019).
No end group written: not given here.

Columns and labels:
[1] = tested on: Listeria ivanovii ATCC 19119; details: ATCC 19119, 48 h
[2] = tested on: Vibrio parahaemolyticus ALN-0312; details: 48 h
[3] = tested on: Staphylococcus aureus ATCC 25923; details: ATCC 25923, 48 h
[4] = tested on: Listeria monocytogenes ATCC 15313; details: ATCC 15313, 48 h
[5] = tested on: Bacteroides thetaiotaomicron ATCC 29741; details: two-fold dilution series from 1.050 mM stock in Mueller-Hinton Broth or Brucella Broth; 5.10^5 CFU/mL; visible growth after 24 or 48 h
[6] = format: in vitro ADME
Procedure: The dynamic GI TIM-1 Model (TNO Nutrition and Food Research Institute, Zeist, the Netherlands) described previously by was used for evaluation of peptide digestibility. Gastric pH began at 4.5 and decreased gradually to 3.6 after 20 min, 2.7 after 40 min and 2.0 after 60 min of digestion by injecting 0.5 mol/L HCl, finally reaching 1.7 after 120 min. The pH of the duodenal, jejunal and ileal compartments was adjusted to 6, 6.8 and 7.2, respectively, by injecting 0.5 mol/L sodium bicarbonate solution. Gastric secretions consisted of pepsin (0.163 mg/mL) from porcine gastric mucosa (EC 3.4.23.1; Sigma-Aldrich Canada Ltd., Oakville, ON, Canada) and lipase (0.133 mg/mL) from Rhizopus oryzae (EC 3.1.1.3; Amano Pharmaceuticals, Nagoya, Japan), both in an electrolyte solution (NaCl, 6.2 g/L; KCl, 2.2 g/L; CaCl2, 0.3 g/L; NaHCO3, 1.5 g/L) delivered at a flow rate of 0.25 mL/min. […]
To check the digestibility of the synthetic GAPDH-related derived peptide, TIM samples were separated by SPE-C18 before analysis by FPLC with ionic exchange column (IEX). […] The absorbance was recorded at 214 nm and collected fractions were screened for sequence peptides by LC-MS/MS analysis as described above.

[7] = tested on: Enterococcus faecalis ATCC 29212; details: ATCC 29212, 48 h
[8] = tested on: Lactobacillus acidophilus ATCC 4356; assay: MIC, broth microdilution; format: cell-based; details: two-fold dilution series from 1.050 mM stock in Mueller-Hinton Broth or Brucella Broth; 5.10^5 CFU/mL; visible growth after 24 or 48 h
[9] = tested on: Blautia coccoides ATCC 29236; details: ATCC 29236, 48 h
Micrococcus luteus 272 = assay: MIC, broth microdilution; format: cell-based; details: two-fold dilution series from 1.050 mM stock in Mueller-Hinton Broth or Brucella Broth; 5.10^5 CFU/mL; visible growth after 24 or 48 h
Enterococcus faecium L1 = details: L1, 48 h
[10] = tested on: Escherichia coli ATCC 25922; details: ATCC 25922, 48 h
Bacillus megaterium B301 = details: Bacillus B301, 48 h
[11] = tested on: Bifidobacterium infantis ATCC 15697; details: ATCC 15697, 48 h
[12] = tested on: Pseudomonas aeruginosa ATCC 27853; details: ATCC 27853, 48 h
gastric pepsin = details: upper gastrointestinal conditions; cited from earlier work
From the text: Food additives such as AMPs must be safe for the human microbiota and the environment. Consequently, knowing the digestibility of AMPs in the human gastrointestinal tract is critical and should not be underestimated. The TIM-1 model used to evaluate the stability of the synthetic peptide simulated the major GI stress conditions, such as gastric acid environment, excretion of proteolytic enzymes and bile salts, and peristaltic movements.

KVEIVAINDPFIDL [AMGAP]
MIC [1]: 131 µM
MIC [2]: >1050 µM
MIC [3]: >1050 µM
MIC [4]: 131 µM
MIC [5]: 263 µM
Proportion of intact synthetic peptide in the effluent fraction [6]: 2%
Sensitivity to the digestive process ([6]; pH 2.7): sensitive
MIC [7]: >1050 µM
MIC [8]: 263 µM
MIC [9]: >1050 µM
MIC (Micrococcus luteus 272): 263 µM
MIC (Enterococcus faecium L1): >1050 µM
MIC [10]: >1050 µM
MIC (Bacillus megaterium B301): >1050 µM
MIC [11]: >1050 µM
MIC [12]: >1050 µM

pediocin PA-1: pediocin PA-1, compared for stability under upper gastrointestinal conditions (KYYGNGVTCGKHSCSVDWGKATTCIINNGAMAWATGGHQGNHKC; ends and bridges not checked; cysteine pairing not given here; UniProt P29430 19-62, looked up)
Stability with gastric pepsin combined with low pH (gastric pepsin): reduced its stability
